Source: patent US5726325A, “Tricyclic compounds” (Kyowa Hakko Kogyo Co., Ltd., priority 1995, dated 1998)

Legend:
detrusor muscle [1] = assay: Test Example 2: relaxation of guinea pig bladder strips, rhythmical contraction induced by 15 mM KCl; assay type: cell-based, guinea pig (male albino Hartley); details: Cavia porcellus, concentration decreasing detrusor contraction by 50%
Source text: (§1) The activity of Compound (I) as a smooth muscle relaxant which is useful as a therapeutic agent for urinary incontinence can be observed, for example, using the following tests. In the following Test Examples 1 and 2, "IC50 " means the concentration of a test compound which induces the decrease in the contraction of detrusor muscle by 50%.
(§2) Male albino Hartley guinea pigs (350-550 g) were used as test animals. Each animal was exsanguinated to death under pentobarbital sodium anesthesia. The lower abdominal cavity was opened and its bladder was positioned. The connective tissue and the fat tissue around the bladder were removed, and the bladder was cleaned. After two pelvic nerves on the surface of the abdominal side of the bladder were dissected, the bladder was taken out on the entrance of ureter. The bladder was washed with a Krebs-Henseleit buffer [composition (mM): NaCl 118, KCl 4.7, MgSO4 1.2, KH2 PO4 1.2, CaCl2 2.5, NaHCO3 25, and D-glucose 11.1], and then put on a gauze patch soaked in the buffer in a Petri dish. The dome and the trigone of the bladder were dissected and discarded. The back of the bladder was cut vertically in the middle with scissors, and the bladder was put flat on the gauze patch. The dome tip and the side of the trigone of the bladder were dissected and discarded, and the mucosa of the bladder was removed. The back of the bladder was cut vertically to get 6 strips which are ca. 2.0 mm wide and ca. 10 mm long.
(§3) One end of each strip was fixed on a plastic supporter rod, and the other end was fixed on a clip connected to a suture thread. The supporter was fixed in 20 ml of an organ bath and the suture thread connected to the clip was fixed on a force-displacement transducer (NIHON KODEN TB-611T). The tissue was suspended in a Krebs-Henseleit buffer, and the bath solution was warmed to 37° C. and bubbled with a gas mixture of 5% CO2 and 95% O2. The pH of the solution was adjusted to about 7.4. The transducer was connected to a polygraph (NIHON KODEN AP-621G), and the change of tension was recorded on a recorder (YOKOGAWA type 3066). The polygraph was graduated by 0.5 g/cm.
The effect of a smooth muscle relaxant varies with the concentration of KCl based on the difference of an action mechanism. In the following Test Example, KCl was used at a concentration different from that in Test Example 1.
A sample of the excised bladder was prepared in the same manner as in Test Example 1, and the tension of the preparation was measured. After the tension of the tissue was adjusted to be a steady state at 1 g, 15 mM KCl was applied. After the rhythmical contraction was confirmed to appear by KCl, the tissue was washed. Then, 15 mM KCl was applied again. After the rhythmical contraction took place constantly and the tissue reached the steady state, a test compound was applied by the cumulative method (half-logarithmic incremence). The contact time at each concentration was 30 minutes. The activity of the compound was expressed as the maximum relaxation rate (%) of the tension induced by the agonist.

detrusor muscle [2] = assay: Test Example 1: relaxation of guinea pig bladder strips contracted with 50 mM KCl; assay type: cell-based, guinea pig (male albino Hartley); details: Cavia porcellus; contraction induced by 50 mM KCl; concentration decreasing detrusor contraction by 50%
Source text: as §1, §2, §3
After the tissue was incubated in the buffer for 15 minutes without preloading, tension was added thereto for about one hour. The preloading tension added was 1.5 g and it was relaxed to about 1 g. The tissue was washed at intervals of 15 minutes and the tension was adjusted to 1.5 g just before washing. The tension of the tissue was adjusted to be a steady state at 1 g. After this equilibrium time, 50 mM KCl (the whole content in the bath) was added, and the tissue was washed 10 minutes later. KCl was added to the tissue at intervals of 30 minutes, followed by washing 10 minutes later, and KCl was applied repeatedly until the developed tension induced by KCl becomes constant. When the tissue was confirmed to contract constantly by the application of KCl and relax to the steady state after washing, 50 mM KCl was applied again. After the tissue reached the steady state and the base line was obtained, a test compound was applied by the cumulative method (half-logarithmic incremence). The contact time at each concentration was 30 minutes. The activity of the compound was expressed as the maximum relaxation rate (%) of the tension induced by the agonist.

bladder = assay: Test Example 4: micturition contraction interval in rats under partial restraint, oral; assay type: in vivo, rat (male SD strain); details: Rattus norvegicus, 1 mg/kg oral, pre-administration = 100
Source text: As a control compound, cromakalim was used.

| Compound | IC50 (detrusor muscle [1]) | IC50 (detrusor muscle [2]) | other results |
| --- | --- | --- | --- |
| CC(O)(C(=O)Nc1ccc2c(c1)C(=O)c1ccccc1CO2)C(F)(F)F (stereo not shown) [Compound 3, 2-(3,3,3-Trifluoro-2-hydroxy-2-methylpropanoylamino)-6,11-dihydrodibenz[b,e]oxepin-11-one] | 1.8 µM | 2.2 µM | – |
| CC(O)(C(=O)Nc1cccc2c1C(=O)c1ccccc1-2)C(F)(F)F (stereo not shown) [Compound 4, 1-(3,3,3-Trifluoro-2-hydroxy-2-methylpropanoylamino)fluoren-9-one] | 8.4 µM | 2.6 µM | – |
| CC(O)(C(=O)Nc1ccc2c(c1)-c1ccccc1C2=O)C(F)(F)F (stereo not shown) [Compound 6, 3-(3,3,3-Trifluoro-2-hydroxy-2-methylpropanoylamino)fluoren-9-one] | 11.2 µM | 6.1 µM | – |
| CC(O)(C(=O)Nc1cc2c(cc1Cl)-c1ccccc1C2=O)C(F)(F)F (stereo not shown) [Compound 11, 3-Chloro-2-(3,3,3-trifluoro-2-hydroxy-2-methyl-propanoylamino)fluoren-9-one] | 2.2 µM | 2 µM | – |
| CC(O)(C(=O)Nc1cc2c(cc1Br)-c1ccccc1C2=O)C(F)(F)F (stereo not shown) [Compound 12, 3-Bromo-2-(3,3,3-trifluoro-2-hydroxy-2-methylpropanoylamino)fluoren-9-one] | 3.2 µM | 3.8 µM | – |
| CC(O)(C(=O)Nc1ccc2c(c1)C(=O)c1cc(Br)ccc1-2)C(F)(F)F (stereo not shown) [Compound 13, 7-Bromo-2-(3,3,3-trifluoro-2-hydroxy-2-methylpropanoylamino)fluoren-9-one] | 48 µM | 3.5 µM | – |
| CC(O)(C(=O)Nc1cccc2c1-c1ccccc1C2=O)C(F)(F)F (stereo not shown) [Compound 14, 4-(3,3,3-Trifluoro-2-hydroxy-2-methylpropanoylamino)fluoren-9-one] | 2.3 µM | 5.7 µM | – |
| CC(O)(C(=O)Nc1ccc2c(c1)OCc1sccc1C2=O)C(F)(F)F (stereo not shown) [Compound 18, 7-(3,3,3-Trifluoro-2-hydroxy-2-methylpropanoylamino)-4,10-dihydrothieno[2,3-c][1]benzoxepin-4-one] | 2.1 µM | > 10 µM | – |
| CC(O)(C(=O)Nc1ccc2c(c1)OCc1c(F)cccc1C2=O)C(F)(F)F (stereo not shown) [Compound 21, 7-Fluoro-3-(3,3,3-trifluoro-2-hydroxy-2-methylpropanoylamino)-6,11-dihydrodibenz[b,e]oxepin-11-one] | > 10 µM | 4.3 µM | – |
| Cc1ccc(NC(=O)C(C)(O)C(F)(F)F)c2c1OCc1ccccc1C2=O (stereo not shown) [Compound 22] | > 10 µM | 4.2 µM | – |
| COc1ccc(NC(=O)C(C)(O)C(F)(F)F)c2c1OCc1ccccc1C2=O (stereo not shown) [Compound 23] | 7.8 µM | > 10 µM | – |
| Cc1cc2c(cc1NC(=O)C(C)(O)C(F)(F)F)OCc1ccccc1C2=O (stereo not shown) [Compound 25, 2-Methyl-3-(3,3,3-trifluoro-2-hydroxy-2-methylpropanoylamino)-6,11-dihydrodibenz[b,e]oxepin-11-one] | > 10 µM | 2.2 µM | – |
| Cc1ccc(NC(=O)C(C)(O)C(F)(F)F)c2c1OCc1ccsc1C2=O (stereo not shown) [Compound 26, 6-Methyl-9-(3,3,3-trifluoro-2-hydroxy-2-methylpropanoylamino)-4,10-dihydrothieno[3,2-c][1]-benzoxepin-10-one] | > 10 µM | 7.1 µM | – |
| COc1ccc(NC(=O)C(C)(O)C(F)(F)F)c2c1OCc1ccsc1C2=O (stereo not shown) [Compound 27, 6-Methoxy-9-(3,3,3-trifluoro-2-hydroxy-2-methylpropanoylamino)-4,10-dihydrothieno[3,2-c][1]-benzoxepin-10-one] | > 10 µM | 4.8 µM | – |
| C[C@@](O)(C(=O)Nc1cccc2c1C(=O)c1sccc1CO2)C(F)(F)F [Compound 34, (R)-9-(3,3,3-Trifluoro-2-hydroxy-2-methylpropanoylamino)-4,10-dihydrothieno[3,2-c][1]benzoxepin-10-one] | 2.2 µM | 1.6 µM | – |
| C[C@@](O)(C(=O)Nc1cccc2c1C(=O)c1ccoc1CO2)C(F)(F)F [Compound 36, (R)-5-(3,3,3-Trifluoro-2-hydroxy-2-methylpropanoylamino)-4,10-dihydrofuro[2,3-c][1]benzoxepin-4-one] | 1.3 µM | 8.3 µM | – |
| C[C@@](O)(C(=O)Nc1ccc2c(c1)OCc1occc1C2=O)C(F)(F)F [Compound 38, (R)-7-(3,3,3-Trifluoro-2-hydroxy-2-methylpropanoylamino)-4,10-dihydrofuro[2,3-c][1]benzoxepin-4-one] | 0.9 µM | 13.4 µM | – |
| C[C@](O)(C(=O)Nc1ccc2c(c1)C(=O)c1sccc1CO2)C(F)(F)F [Compound 39, (S)-8-(3,3,3-Trifluoro-2-hydroxy-2-methylpropanoylamino)-4,10-dihydrothieno[3,2-c][1]benzoxepin-10-one] | 2.6 µM | > 10 µM | – |
| CC(O)(C(=O)Nc1cccc2c1C(=O)c1ccccc1CS2)C(F)(F)F (stereo not shown) [Compound 40, 1-(3,3,3-Trifluoro-2-hydroxy-2-methylpropanoylamino)-6,11-dihydrodibenzo[b,e]thiepin-11-one] | 3.5 µM | 1.5 µM | – |
| CC(O)(C(=O)Nc1ccc2c(c1)SCc1ccccc1C2=O)C(F)(F)F (stereo not shown) [Compound 41, 3-(3,3,3-Trifluoro-2-hydroxy-2-methylpropanoylamino)-6,11-dihydrodibenzo[b,e]thiepin-11-one] | 1.6 µM | 2.1 µM | – |
| CC(O)(C(=O)Nc1cccc2c1C(=O)c1ccoc1CS2)C(F)(F)F (stereo not shown) [Compound 42, 5(3,3,3-Trifluoro-2-hydroxy-2-methylpropanoylamino)-4,10-dihydrofuro[2,3-c][1]benzothiepin-4-one] | 1.5 µM | 4.7 µM | – |
| CC(O)(C(=O)Nc1ccc2c(c1)SCc1occc1C2=O)C(F)(F)F (stereo not shown) [Compound 43, 7-(3,3,3-Trifluoro-2-hydroxy-2-methylpropanoylamino)-4,10-dihydrofuro[2,3-c][1]benzothiepin-4-one] | 2.1 µM | 3.5 µM | – |
| CC(O)(C(=O)Nc1ccc2c(c1)SCc1sccc1C2=O)C(F)(F)F (stereo not shown) [Compound 47, 7-(3,3,3-Trifluoro-2-hydroxy-2-methylpropanoylamino)-4,10-dihydrothieno[2,3-c][1]benzothiepin-4-one] | 6.1 µM | – | – |
| CC(O)(C(=O)Nc1cccc2c1C(=O)c1ccsc1C[S+]2[O-])C(F)(F)F (stereo not shown) [Compound 50, 9-Oxo-5-(3,3,3-trifluoro-2-hydroxy-2-methylpropanoylamino)-4,10-dihydrothieno[2,3-c][1]benzothiepin-4-one] | 6.1 µM | – | – |
| CC(O)(C(=O)Nc1ccc2c(c1)[S+]([O-])Cc1sccc1C2=O)C(F)(F)F (stereo not shown) [Compound 51, 9-Oxo-7-(3,3,3-trifluoro-2-hydroxy-2-methylpropanoylamino)-4,10-dihydrothieno[2,3-c][1]benzothiepin-4-one] | 5.7 µM | – | – |
| CC1(C)Oc2ccc(C#N)cc2C(N2CCCC2=O)C1O (stereo not shown) [Cromakalim, cromakalim, reference compound] | – | – | response vs control in vivo at 1 mg/kg (bladder; 1 hr): 128%; response vs control in vivo at 1 mg/kg (bladder; 2 hr): 133%; response vs control in vivo at 1 mg/kg (bladder; 3 hr): 142%; response vs control in vivo at 1 mg/kg (bladder; 4 hr): 133%; response vs control in vivo at 1 mg/kg (bladder; 5 hr): 133% |
